Laboratory results taken from PubChem BioAssay (NCI).
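Following 48 hours of exposure in 96-well plates, responses at five concentrations were used to interpolate endpoints linearly. TGI: concentration producing complete growth inhibition.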

Assays:
Test in all cases: DTP human tumour cell line panel, 48 h
SW-620 colon = test system: SW-620 colon
LOX IMVI melanoma = test system: LOX IMVI melanoma
SF-268 CNS = test system: SF-268 CNS
NCI-H460 lung = test system: NCI-H460 lung
NCI-H522 lung = test system: NCI-H522 lung
U251 CNS = test system: U251 CNS
MDA-MB-231 breast = test system: MDA-MB-231 breast
ACHN renal = test system: ACHN renal
T-47D breast = test system: T-47D breast
K-562 leukemia = test system: K-562 leukemia
A549 NSCLC = test system: A549 NSCLC
HCC-2998 colon = test system: HCC-2998 colon
MALME-3M melanoma = test system: MALME-3M melanoma
DU-145 prostate = test system: DU-145 prostate
SNB-19 CNS = test system: SNB-19 CNS
TK-10 renal = test system: TK-10 renal
HL-60(TB) leukemia = test system: HL-60(TB) leukemia
EKVX NSCLC = test system: EKVX NSCLC
HCT-116 colon = test system: HCT-116 colon
UACC-257 melanoma = test system: UACC-257 melanoma
HS 578T breast = test system: HS 578T breast
PC-3 prostate = test system: PC-3 prostate
SR leukemia = test system: SR leukemia
NCI-H23 lung = test system: NCI-H23 lung
HT29 colon = test system: HT29 colon
SN12C renal = test system: SN12C renal
HOP-62 NSCLC = test system: HOP-62 NSCLC
COLO 205 colon = test system: COLO 205 colon
SF-539 CNS = test system: SF-539 CNS
CAKI-1 renal = test system: CAKI-1 renal
SF-295 CNS = test system: SF-295 CNS
A498 renal = test system: A498 renal
SK-MEL-2 melanoma = test system: SK-MEL-2 melanoma
CCRF-CEM leukemia = test system: CCRF-CEM leukemia
OVCAR-8 ovarian = test system: OVCAR-8 ovarian
OVCAR-5 ovarian = test system: OVCAR-5 ovarian
RPMI-8226 leukemia = test system: RPMI-8226 leukemia
OVCAR-4 ovarian = test system: OVCAR-4 ovarian
MCF7 breast = test system: MCF7 breast
MOLT-4 leukemia = test system: MOLT-4 leukemia
MDA-N = test system: MDA-N
KM12 colon = test system: KM12 colon
IGROV1 ovarian = test system: IGROV1 ovarian
UO-31 renal = test system: UO-31 renal
HOP-92 NSCLC = test system: HOP-92 NSCLC
NCI-H226 lung = test system: NCI-H226 lung
HCT-15 colon = test system: HCT-15 colon
SK-OV-3 ovarian = test system: SK-OV-3 ovarian
M14 melanoma = test system: M14 melanoma
BT-549 breast = test system: BT-549 breast
SK-MEL-5 melanoma = test system: SK-MEL-5 melanoma
786-0 renal = test system: 786-0 renal
SNB-75 CNS = test system: SNB-75 CNS
RXF 393 renal = test system: RXF 393 renal
MDA-MB-435 = test system: MDA-MB-435
SK-MEL-28 melanoma = test system: SK-MEL-28 melanoma
OVCAR-3 ovarian = test system: OVCAR-3 ovarian
NCI/ADR-RES ovarian = test system: NCI/ADR-RES ovarian
UACC-62 melanoma = test system: UACC-62 melanoma

Measured: TGI

C[N+]12CCCCC1C(CN1C(=O)c3ccccc3C1=O)CCC2 (centres undefined)
> 100 µM: all assays above
